Laboratory results taken from PubChem BioAssay AID1361 (SRMLSC, 2008).
The source made the active and inactive calls. No rule for the calls is given here.

Assay: mitochondrial fusion inhibitors, confirmation, cell-based, chemical genetic, wild-type and mutant (AID 1361)
Conditions: Cell-based mitochondrial fusion phenotype, imaging
[1] = mutant cells, measured here: mutant cell line IC50

SMILES	IC50 (WT cells)	IC50 [1] [µM]
Cc1ccc(C)c(NC(=O)c2cc(-c3ccccc3)nn2-c2ccccc2)c1	4.99 µM	> 25
O=C(CCCCCn1c(=S)[nH]c2cc3c(cc2c1=O)OCO3)N1CCN(C(=O)c2ccco2)CC1	> 25 µM (inactive)	> 25
Cc1ccc(C(NC(=O)NC(C)c2ccccc2)C(Cl)(Cl)Cl)cc1F (configuration not stated)	10.9 µM	> 25
Cc1cc(C)nc(N2CCC(C(=O)NCCc3ccc(F)cc3)CC2)n1	> 25 µM (inactive)	> 25
COc1cc(SC#N)ccc1N=Cc1c(C)[nH]n(-c2ccc(C)cc2)c1=O	17.4 µM	> 25
CCOc1ccccc1CNC(=O)c1ccc(Sc2ccc(Cl)cc2)c(NC(C)=O)c1	16.9 µM	> 25
Clc1cncc(Cl)c1NNc1c2ccccc2nc2ccccc12	> 25 µM (inactive)	> 25
CCCCOP(=O)(OCCCC)C(Nc1ccccc1)c1ccc2c(c1)OCO2 (configuration not stated)	20.3 µM	> 25
COC(=O)c1ccn(C(=O)c2ccc(Cl)cc2)n1	> 25 µM (inactive)	> 25
NC(=O)c1ccc(NC(=O)CCCN2C(=O)c3ccccc3C2=O)cc1	> 25 µM (inactive)	> 25
COc1ccccc1-n1cnc2sc(-c3ccccc3)cc2c1=O	> 25 µM (inactive)	> 25
Cc1ccc2nc(N/N=C/c3ccccc3F)nc(-c3ccccc3)c2c1	7.54 µM	16.6
COc1ccccc1N=Nc1nc(-c2ccccc2)c(-c2ccccc2)[nH]1	7.2 µM	17.4
Cc1ccc(-c2cc(C(F)F)n3ncc(C(=O)N4CCN5CCCC5C4)c3n2)cc1 (configuration not stated)	> 25 µM (inactive)	> 25
CCCCN1C(=O)NC(=O)C2(Cc3c(nc4c(C)cccn4c3=O)N3CCc4ccccc4C32)C1=O (configuration not stated)	11.9 µM	> 25
Fc1ccc(N2N=C(c3cccs3)CC2c2ccco2)c(F)c1 (configuration not stated)	15.8 µM	22.3
CC(C)=CCc1c2c(c3occ(-c4ccc(O)cc4)c(=O)c3c1O)C=CC(C)(C)O2	24.7 µM	> 25
CCOC(=O)C1CCCN(C(=O)CS(=O)(=O)Cc2ccccc2)C1 (configuration not stated)	> 25 µM (inactive)	> 25
S=C(NCCNCc1ccccc1)NC1CCCCC1	13.6 µM	> 25
Cc1cccc(NC(=S)NNC(=O)COc2ccc(Cl)cc2Cl)c1	10.9 µM	21
CCc1ccc(C2=CC(c3cc(Br)ccc3F)n3ncnc3N2)cc1 (configuration not stated)	23.7 µM	> 25

SMILES	IC50 (WT cells)	IC50 [1] [µM]
O=C(Cc1c(O)c2ccccc2[nH]c1=O)NCc1ccccc1F	> 25 µM (inactive)	> 25
Cc1cc(Oc2cnn(C(C)(C)C)c(=O)c2Cl)cc(C(C)C)c1	16.9 µM	> 25
CCCCOP(=O)(c1ccc(N(C)C)cc1)C(Nc1ccccc1)c1ccccc1 (configuration not stated)	14.1 µM	> 25
O=C(NCc1ccccc1)c1ccc(C(=O)N(C2CCCCC2)C2CCCCC2)cc1	> 25 µM (inactive)	> 25
COc1cccc(C2CN(c3ccc(F)cc3F)N=C2c2cccs2)c1OC (configuration not stated)	10 µM	> 25
CCOc1ccc(S(=O)(=O)N2CCN(C(=O)c3cc4c(s3)CCCC4)CC2)cc1	4.98 µM	> 25
O=C1CC(C(=O)NCc2ccccc2)C2(CCCC2)O1 (configuration not stated)	> 25 µM (inactive)	> 25
Cn1c(Cc2ccccc2)nnc1SCC(=O)c1ccc(Br)s1	> 25 µM (inactive)	> 12.5
O=[N+]([O-])c1cccnc1N1CCC(c2cc(-c3ccc(Cl)cc3Cl)n[nH]2)CC1	6.53 µM	> 25
O=C(CS(=O)(=O)Cc1ccccc1)Nc1cccnc1	> 25 µM (inactive)	> 25
CCCCN(CCCC)CCNC(=O)Cc1nc2c(c(=O)[nH]c(=O)n2C)n1C	> 25 µM (inactive)	> 25
Cc1ccc2c(c1)C1CN(C)CCC1N2C(=O)c1cn(-c2ccccc2)nc1-c1ccccc1 (configuration not stated)	23.6 µM	> 25
Cc1ccc(S(=O)(=O)Nc2ccc(C(OC(=O)c3ccccc3[N+](=O)[O-])(C(F)(F)F)C(F)(F)F)cc2)cc1	11 µM	> 25
O=C(N/N=C/c1cccc(F)c1)c1cc(-c2ccco2)nc2ccccc12	> 25 µM (inactive)	> 25
CC1(C)CC(=O)c2c(O)cc(OCc3ccc([N+](=O)[O-])cc3)cc2O1	> 25 µM (inactive)	> 25
CCn1cc(C(=O)OCC(=O)c2cc(C)n(-c3cccc(C(F)(F)F)c3)c2C)c(=O)c2ccc(C)nc21	11.1 µM	> 25
COC(=O)[C@H](Cc1ccccc1)NC(=O)O[C@H]1C(=O)c2ccc(OC)cc2O[C@@H]1c1ccc2c(c1)OCO2	12.9 µM	> 25
COc1ccc(NC(=O)Nc2cccc([N+](=O)[O-])c2)cc1Cl	> 25 µM (inactive)	> 25
Cc1nc2ccccc2c2oc(C(=O)Nc3ccc(C(C)C)cc3)cc12	> 25 µM (inactive)	> 25
COc1ccc(-n2cc(-c3ccccc3)c3c(N4CC(C)OC(C)C4)ncnc32)cc1 (configuration not stated)	21.5 µM	> 25
CCC(C(=O)OCC(=O)Nc1ccc(SC(F)F)cc1)c1ccccc1 (configuration not stated)	17.6 µM	> 25

SMILES	IC50 (WT cells)	IC50 [1] [µM]
CCn1c2ccccc2c2cc(/C=N/NC(=O)c3cccc(C)c3)ccc21	> 25 µM (inactive)	> 25
Cc1ccc(NC(=O)C2SC(=Nc3ccccc3)C(C(=O)Nc3ccc(Cl)cc3)=C2N)cc1 (configuration not stated)	> 25 µM (inactive)	> 25
CCOc1ccccc1N1CCN(C(=O)c2ccc3[nH]c4c(c3c2)CCCC4)CC1	17.1 µM	> 25
Cc1cccc(N2CCN(C(c3ccccc3)c3nnnn3C(C)(C)C)CC2)c1C (configuration not stated)	9.14 µM	> 25
CC(c1ccco1)N(C(=O)COc1ccccc1[N+](=O)[O-])c1ccccn1 (configuration not stated)	> 25 µM (inactive)	> 25
COc1ccc(NS(=O)(=O)c2ccc3oc(Nc4ccc5c(c4)OCCO5)nc3c2)cc1	17.6 µM	> 25
CSC(=S)N/N=C/c1c[nH]c2ccccc12	7.53 µM	11.2
COC(=O)c1cn(C(=O)OC)c2ccccc12	> 25 µM (inactive)	> 25
O=C(Nc1ccc(F)cc1)c1ccccc1Oc1ccc(C(F)(F)F)cc1[N+](=O)[O-]	17.5 µM	> 25
Cc1nc2ccc(NC(=O)c3nn(CC(C)C)c(=O)c4ccccc34)cc2s1	> 25 µM (inactive)	> 25
COc1ccccc1-n1c(SCC(=O)c2ccc(O)cc2O)nc2cc([N+](=O)[O-])ccc21	6.02 µM	> 25
CC(C)(C)n1nnnc1C(c1cccs1)N(Cc1cccnc1)Cc1ccccc1Cl (configuration not stated)	23.2 µM	> 25
Cc1ccccc1NC1=C(Cl)C(=O)N(C2CCCCC2)C1=O	19.1 µM	> 25
Cc1cc2c3c(c1)C1(SCC(=O)N1c1ccc(F)cc1)C(=O)N3C(C)(C)CC2C (configuration not stated)	> 25 µM (inactive)	> 25
COc1ccc(CNC(=O)[C@H](C)[C@@H]2C[C@@]2(C)[C@@H](NC(=O)OCc2ccccc2)c2ccccc2)cc1OC	22.6 µM	> 25
Cc1ccc2nc(SC(C(=O)Nc3ccc(F)cc3)c3ccccc3)[nH]c2c1 (configuration not stated)	> 25 µM (inactive)	> 25
CCc1ccccc1NC(=S)N=Nc1c(O)n(C)c2ccc(S(=O)(=O)N3CCOCC3)cc12	1.37 µM	9.5
C=C(C)c1cccc(C(C)(C)NC(=O)Nc2ccc(Cl)cn2)c1	12.8 µM	> 25
CC(C)CCNC(=O)CCCOc1cc(=O)n(C)c2ccccc12	> 25 µM (inactive)	> 25
CCN(c1ccc2c(c1)OCO2)S(=O)(=O)c1cc(Br)cc2c1N(C(=O)C1CC1)CC2	13.3 µM	> 25
CC1CCN(C(C)C(=O)Nc2ccccc2-c2ccccc2)CC1 (configuration not stated)	> 25 µM (inactive)	> 25

SMILES	IC50 (WT cells)	IC50 [1] [µM]
CCN(Cc1cc2cc(C)ccc2[nH]c1=O)C(=O)c1cccc(OC)c1	> 25 µM (inactive)	> 25
Clc1ccccc1Cn1c(/C=C/c2ccco2)nc2ccccc21	11.6 µM	25
Cc1cc(N2CCN(C(c3ccccc3)c3ccc(Cl)cc3)CC2)n2ncnc2n1 (configuration not stated)	13.7 µM	22.3
CCC1=NN2C(=N)/C(=C\c3cccn3-c3ccc(C)cc3C)C(=O)N=C2S1	13.2 µM	> 25
COC(=O)CNC(c1ccccc1)c1cc(Cl)ccc1NC(=O)c1cccc(Cl)c1 (configuration not stated)	10.4 µM	> 25
COc1ccc(C(=O)Nc2ccc(Cl)cc2C(=O)NCCN2CCOCC2)cc1	> 25 µM (inactive)	> 25
N=c1c(C(=O)NCc2ccco2)cc2c(=O)n3ccccc3nc2n1Cc1ccc(Cl)cc1	> 25 µM (inactive)	> 25
CCOC(=O)c1c(NC(=O)CN2CCN(C(=O)c3ccco3)CC2)sc2c1CCCC2	23.2 µM	> 25
Cc1cccc(NC(=O)c2ccc(N3CCCCC3)c([N+](=O)[O-])c2)n1	> 25 µM (inactive)	> 25
Cc1oc(-c2ccccc2)nc1CN1C(=O)C(C)N=C(c2ccccc2F)c2cc(Cl)ccc21 (configuration not stated)	12.4 µM	> 25
COc1ccc(Br)cc1CN(C)CC(=O)Nc1cc(Cl)cc(Cl)c1	9.17 µM	22.1
COCCn1c(SCc2nnc(-c3ccccc3)o2)nc2sc3c(c2c1=O)CCC3	8.38 µM	17.6
NC(=O)NCCC1=CCCCC1	> 25 µM (inactive)	> 25
C/C(N)=C(/C#N)C(=O)COC(=O)c1cc(S(=O)(=O)N2CCCCC2)ccc1C	> 25 µM (inactive)	> 25
CC(C)C1OC(c2cccc(NC(=O)c3cccs3)c2)OCC1(C)C (configuration not stated)	> 25 µM (inactive)	> 25
COC(=O)Nc1snnc1C	> 25 µM (inactive)	> 25
CC12CCC(O)CC1=CCC1C2CCC2(C)C1CCC21CCC(=O)O1 (configuration not stated)	15 µM	> 25
COC(=O)C1CCN(C(=O)c2cc(OC)c(OC)c(OC)c2)CC1	> 25 µM (inactive)	> 25
